Results from US20180002288A1, “USE OF PICOLINAMIDES AS FUNGICIDES” (DOW AGROSCIENCES LLC, priority 2014, published 2018).
Read-outs that look alike come from different tables or passages of the source.

How the values were obtained:
Rhyncosporium secalis = assay: Barley Scald fungicidal activity (RHYNSE); format: in vivo; settings: Hordeum vulgare, 24 h, high volume, 1 Day Protectant, read-out: RHYNSE % Control rating
Protocol: All fungicides were evaluated using the aforementioned method for their activity vs. all target diseases, unless stated otherwise. Wheat leaf blotch and brown rust activity were also evaluated using track spray applications, in which case the fungicides were formulated as EC formulations, containing 0.1% Trycol 5941 in the spray solutions. Wheat plants (variety Yuma) were grown from seed in a greenhouse in 50% mineral soil/50% soil-less Metro mix until the first leaf was fully emerged, with 7-10 seedlings per pot. These plants were inoculated with an aqueous spore suspension of Zymoseptoria tritici either prior to or after fungicide treatments. After inoculation the plants were kept in 100% relative humidity (one day in a dark dew chamber followed by two to three days in a lighted dew chamber at 20° C.) to permit spores to germinate and infect the leaf. The plants were then transferred to a greenhouse set at 20° C. for disease to develop. When disease symptoms were fully expressed on the 1st leaves of untreated plants, infection levels were assessed on a scale of 0 to 100 percent disease severity. Percent disease control was calculated using the ratio of disease severity on treated plants relative to untreated plants. Barley seedlings (variety Harrington) were propagated in soil-less Metro mix, with each pot having 8 to 12 plants, and used in the test when first leaf was fully emerged. Test plants were inoculated by an aqueous spore suspension of Rhyncosporium secalis 24 hr after fungicide treatments. After inoculation the plants were kept in a dew room at 22° C. with 100% relative humidity for 48 hr. The plants were then transferred to a greenhouse set at 20° C. for disease to develop. Fungicide formulation, application and disease assessment on the sprayed leaves followed the procedures as described in the Example A.

Leptosphaeria nodorum = assay: Wheat Glume Blotch fungicidal activity (LEPTNO); format: in vivo; settings: Parastagonospora nodorum, 24 h, high volume, 1 Day Protectant, read-out: LEPTNO % Control rating
Protocol: All fungicides were evaluated using the aforementioned method for their activity vs. all target diseases, unless stated otherwise. Wheat leaf blotch and brown rust activity were also evaluated using track spray applications, in which case the fungicides were formulated as EC formulations, containing 0.1% Trycol 5941 in the spray solutions. Wheat plants (variety Yuma) were grown from seed in a greenhouse in 50% mineral soil/50% soil-less Metro mix until the first leaf was fully emerged, with 7-10 seedlings per pot. These plants were inoculated with an aqueous spore suspension of Zymoseptoria tritici either prior to or after fungicide treatments. After inoculation the plants were kept in 100% relative humidity (one day in a dark dew chamber followed by two to three days in a lighted dew chamber at 20° C.) to permit spores to germinate and infect the leaf. The plants were then transferred to a greenhouse set at 20° C. for disease to develop. When disease symptoms were fully expressed on the 1st leaves of untreated plants, infection levels were assessed on a scale of 0 to 100 percent disease severity. Percent disease control was calculated using the ratio of disease severity on treated plants relative to untreated plants. Wheat plants (variety Yuma) were grown from seed in a greenhouse in 50% mineral soil/50% soil-less Metro mix until the first leaf was fully emerged, with 7-10 seedlings per pot. These plants were inoculated with an aqueous spore suspension of Leptosphaeria nodorum 24 hr after fungicide treatments. After inoculation the plants were kept in 100% relative humidity (one day in a dark dew chamber followed by two days in a lighted dew chamber at 20° C.) to permit spores to germinate and infect the leaf. The plants were then transferred to a greenhouse set at 20° C. for disease to develop. Fungicide formulation, application and disease assessment followed the procedures as described in the Example A.

Puccinia triticina = assay: Wheat Brown Rust fungicidal activity (PUCCRT); format: in vivo; settings: Low Volume Cereal Activity at 121.5 g/Ha
Alternaria solani = assay: Tomato Early Blight fungicidal activity (ALTESO); format: in vivo; settings: 24 h, high volume, 1 Day Protectant, read-out: ALTESO % Control rating
Protocol: All fungicides were evaluated using the aforementioned method for their activity vs. all target diseases, unless stated otherwise. Wheat leaf blotch and brown rust activity were also evaluated using track spray applications, in which case the fungicides were formulated as EC formulations, containing 0.1% Trycol 5941 in the spray solutions. Wheat plants (variety Yuma) were grown from seed in a greenhouse in 50% mineral soil/50% soil-less Metro mix until the first leaf was fully emerged, with 7-10 seedlings per pot. These plants were inoculated with an aqueous spore suspension of Zymoseptoria tritici either prior to or after fungicide treatments. After inoculation the plants were kept in 100% relative humidity (one day in a dark dew chamber followed by two to three days in a lighted dew chamber at 20° C.) to permit spores to germinate and infect the leaf. The plants were then transferred to a greenhouse set at 20° C. for disease to develop. When disease symptoms were fully expressed on the 1st leaves of untreated plants, infection levels were assessed on a scale of 0 to 100 percent disease severity. Percent disease control was calculated using the ratio of disease severity on treated plants relative to untreated plants. Tomato plants (variety Outdoor Girl) were propagated in soil-less Metro mix, with each pot having one plant, and used when 12 to 14 days old. Test plants were inoculated with an aqueous spore suspension of Alternaria solani 24 hr after fungicide treatments. After inoculation the plants were kept in a dew room at 22° C. with 100% relative humidity for 48 hr to permit spores to germinate and infect the leaf. The plants were then transferred to a growth room at 22° C. for disease to develop. Fungicide formulation, application and disease assessment on the sprayed leaves followed the procedures as described in the Example A.

Phakopsora pachyrhizi = assay: Asian Soybean Rust fungicidal activity (PHAKPA); settings: Phakopsora pachyrhizi, in Glycine max
[1] = 24 h, 1 Day Protectant, read-out: PUCCRT 1DP (Wheat Brown Rust, 1 Day Protectant)
[2] = 72 h, 3 Day Curative, read-out: PUCCRT 3DC (Wheat Brown Rust, 3 Day Curative)
[3] = 24 h, read-out: PHAKPA 1DP % Control rating, soybean, high volume, 25 ppm, 1 Day Protectant
[4] = 72 h, read-out: PHAKPA 3DC % Control rating, soybean, high volume, 25 ppm, 3 Day Curative

Compound	pest or weed control at 100 ppm (Rhyncosporium secalis) [%]	pest or weed control at 100 ppm (Leptosphaeria nodorum) [%]	pest or weed control at 121.5 g/ha (Puccinia triticina; [1]) [%]	pest or weed control at 121.5 g/ha (Puccinia triticina; [2]) [%]	pest or weed control at 100 ppm (Alternaria solani) [%]	pest or weed control at 25 ppm (Phakopsora pachyrhizi; [3]) [%]	pest or weed control at 25 ppm (Phakopsora pachyrhizi; [4]) [%]
COc1ccnc(C(=O)N[C@@H](C)C(=O)O[C@@H](C)[C@H](Oc2ccccc2Cl)c2ccccc2)c1OC(C)=O [Example 205]	< 80	> 80	> 80	> 80	< 80	< 80	< 80
COc1ccnc(C(=O)N[C@@H](C)C(=O)O[C@@H](C)[C@H](Oc2cccc(Cl)c2)c2ccccc2)c1OCOC(C)=O [Example 202]	< 0	< 80	> 80	< 80	< 0	> 80	< 80
COc1ccnc(C(=O)N[C@@H](C)C(=O)O[C@@H](C)C(Oc2ccc(F)cc2)c2ccccc2)c1OC(C)=O (some centres unmarked) [Example 236]	> 80	> 80	> 80	> 80	< 80	> 80	< 0
COc1ccnc(C(=O)N[C@@H](C)C(=O)O[C@@H](C)[C@H](Oc2ccccc2)c2ccccc2)c1OCOC(C)=O [Example 183]	> 80	> 80	> 80	> 80	< 80	< 80	< 80
COc1ccnc(C(=O)N[C@@H](C)C(=O)O[C@@H](C)C(Oc2ccc(F)cc2)c2ccc(F)cc2)c1OCOC(C)=O (some centres unmarked) [Example 238]	> 80	> 80	> 80	> 80	> 80	< 80	< 80
COc1cc(F)ccc1[C@@H](Oc1ccccc1)[C@H](C)OC(=O)[C@H](C)NC(=O)c1nccc(OC)c1OCOC(C)=O [Example 256]	> 80	> 80	> 80	> 80	< 80	> 80	< 0
COc1ccccc1[C@@H](Oc1ccccc1)[C@H](C)OC(=O)[C@H](C)NC(=O)c1nccc(OC)c1OCOC(C)=O [Example 255]	< 80	> 80	> 80	> 80	< 0	> 80	< 0
COc1ccnc(C(=O)N[C@@H](C)C(=O)O[C@@H](C)[C@H](Oc2ccc(F)cc2)c2ccccc2)c1OC(C)=O [Example 235]	> 80	> 80	> 80	> 80	< 80	< 80	< 80
